Results as given in article PMC4884984, “Identification of approved and investigational drugs that inhibit hypoxia-inducible factor-1 signaling” (Oncotarget, 2016).
Where two headings read alike, the source gives them in different places.

How the values were obtained:
[1] = tested on: co-cultures of human aortic endothelial cells and human mesenchymal stem cells; experiment: In vitro angiogenesis co-culture assay (tube formation); assay type: cell-based; settings: Homo sapiens, 72 h, Table 1, three-day exposure; for IC50: tube formation; for Emax: percentage of inhibition compared to DMSO controls, read-out: Angiogenesis Efficacy (converted)
[2] = tested on: hypoxia response element-beta-lactamase (HRE–bla); experiment: HRE-bla reporter gene assay in ME-180 cells; assay type: cell-based, human; settings: Homo sapiens
ME-180 cells = experiment: Cancer cell proliferation assay, ME-180; assay type: cell-based; settings: Homo sapiens; for Emax: read-out: ME-180 3-Day Viability Efficacy
HCT116 cells = experiment: Cancer cell proliferation assay, HCT116; assay type: cell-based, human; settings: for Emax / IC50: Homo sapiens; for Emax: read-out: HCT116 3-Day Viability Efficacy
HRE–bla ME-180 cells = experiment: Viability (BLA): CellTiter-Glo counter screen in HRE–bla cells; assay type: cell-based, human; settings: for IC50 / Emax: Homo sapiens, ME-180, Table S7, confirmatory screen; for IC50: 1% O2, 18 h; for Emax: read-out: Viability (BLA) confirmatory Efficacy
[3] = tested on: HIF-1α–NanoLuc HCT116 cells; experiment: Viability (Luc): CellTiter-Glo counter screen in HIF-1α–NanoLuc cells; assay type: cell-based, human; settings: for Viability (Luc) confirmatory IC50: Table S7, 1% O2, 18 h
HIF-1α–NanoLuc = HIF-1α–NanoLuc reporter gene assay (qHTS primary and confirmatory screens); assay type: cell-based, human; settings: Homo sapiens
[4] = ME-180, Table 1, percentage of inhibition compared to DMSO controls, read-out: HRE-bla Efficacy (converted)
[5] = ME-180, Table S7, confirmatory screen, read-out: HRE–bla confirmatory Efficacy
[6] = ME-180, Table S7, confirmatory screen, read-out: HRE–bla confirmatory IC50
[7] = Table 1, ME-180 cells, 1% O2, 18 h, read-out: HRE-bla IC50
[8] = ME-180, Table 1, 72 h, read-out: 72-hr Viability ME-180 IC50
[9] = HCT-116, 72 h, Table S8, 3 days
[10] = ME-180, 72 h, Table S8, 3 days, read-out: ME-180 3-Day Viability IC50
[11] = HCT-116, 72 h, Table S8, 3 days, read-out: HCT116 3-Day Viability IC50
[12] = Table S2, primary screen, read-out: Pathway inhibitors (primary screen) HIF-1α–NanoLuc Activity Efficacy
[13] = Table S2, primary screen, read-out: Pathway inhibitors (primary screen) HIF-1α–NanoLuc Activity IC50
[14] = Table S2, validation, read-out: Pathway inhibitors (validation) HIF-1α–NanoLuc Activity Efficacy
[15] = Table S2, validation, read-out: Pathway inhibitors (validation) HIF-1α–NanoLuc Activity IC50
[16] = Table S7, confirmatory screen, read-out: HIF-1α–NanoLuc confirmatory Efficacy
[17] = Table S7, primary screen, read-out: HIF-1α–NanoLuc primary Efficacy
[18] = HCT-116, Table 1, 72 h, read-out: 72-hr Viability HCT116 IC50

SMILES	IC50 [2, 7] [nM]	IC50 (ME-180 cells; [8]) [nM]	Emax [2, 4] [%]	Emax [2, 5] [%]	IC50 [2, 6] [nM]	Emax (HCT116 cells; [9]) [%]	IC50 (HRE–bla ME-180 cells) [nM]	Emax (ME-180 cells; ME-180, 72 h, Table S8, 3 days) [%]	IC50 (ME-180 cells; [10]) [nM]	IC50 (HCT116 cells; [11]) [nM]	Viability (Luc) confirmatory IC50 [3]	Emax (HIF-1α–NanoLuc; [14]) [%]	Emax (HIF-1α–NanoLuc; [16]) [%]	Emax (HRE–bla ME-180 cells) [%]	further results
O=C(Nc1ccc([N+](=O)[O-])cc1Cl)c1cc(Cl)ccc1O [Niclosamide]	230 ± 50	2040	91	84 ± 6	1670 ± 460	83 ± 6	1630 ± 2580								IC50 [1]: 40 ± 30 nM; Emax [1]: 87%
C[C@@H]1O[C@@H](O[C@H]2C[C@@H](O)[C@]3(CO)[C@H]4[C@H](O)C[C@]5(C)[C@@H](C6=CC(=O)OC6)CC[C@]5(O)[C@@H]4CC[C@]3(O)C2)[C@H](O)[C@H](O)[C@H]1O [Ouabain]				94 ± 4	80 ± 10	73 ± 13	130	98 ± 4	130 ± 10	630 ± 370					
O=C(NOCC1CC1)c1ccc(F)c(F)c1Nc1ccc(I)cc1Cl [PD 184352]				74 ± 5	5980 ± 690	97 ± 4	5930 ± 4080	100 ± 7	18000 ± 1170	13200	Inactive	99 ± 2	99 ± 2		Emax (HIF-1α–NanoLuc; [12]): 64%; IC50 (HIF-1α–NanoLuc; [13]): 840 nM; IC50 (HIF-1α–NanoLuc; [15]): 13700 ± 930 nM; Emax (HIF-1α–NanoLuc; [17]): 64%
C[C@@H]1O[C@@H](O[C@@H]2C=C3CC[C@@H]4[C@H](CC[C@]5(C)[C@@H](c6ccc(=O)oc6)CC[C@]45O)[C@@]3(C)CC2)[C@H](O)[C@H](O)[C@H]1O [Proscillaridin A]				93 ± 3	10	87 ± 20	20	98 ± 2	20	90 ± 30	Inactive				IC50 (HIF-1α–NanoLuc; 18 h, read-out: IC50 (primary screen, HIF-1α–NanoLuc assay)): 10 nM; Emax (HIF-1α–NanoLuc; read-out: Efficacy (primary screen, HIF-1α–NanoLuc assay)): 101%; Emax (HIF-1α–NanoLuc; read-out: HIF-1α–NanoLuc confirmatory Efficacy): 103 ± 3%; IC50 (HIF-1α–NanoLuc; read-out: HIF-1α–NanoLuc confirmatory IC50): 10 nM; Emax (HIF-1α–NanoLuc; read-out: HIF-1α–NanoLuc primary Efficacy): 101%; IC50 (HIF-1α–NanoLuc; read-out: HIF-1α–NanoLuc primary IC50): 10 nM
CCCS(=O)(=O)Nc1ccc(F)c(C(=O)c2c[nH]c3ncc(-c4ccc(Cl)cc4)cc23)c1F [Vemurafenib]				75 ± 11	4100 ± 700	63 ± 4	16000 ± 8130	92 ± 5	14400 ± 1970	31800 ± 9410	Inactive	66 ± 6	66 ± 6	27 ± 10	IC50 (HIF-1α–NanoLuc; [15]): 13600 ± 6380 nM
COC[C@H]1OC(=O)c2coc3c2[C@@]1(C)C1=C(C3=O)[C@@H]2CCC(=O)[C@@]2(C)C[C@H]1OC(C)=O [Wortmannin]				91 ± 8	570 ± 170		11400 ± 4790	80 ± 3	7000 ± 4330					47 ± 11	HCT116 3-Day Viability IC50 (HCT116 cells; Table S8, 3 days): Inactive

Second part, led by results:

IC50 [2, 7] [nM]	IC50 (ME-180 cells; [8]) [nM]	SMILES	Emax [2, 4] [%]	Emax [2, 5] [%]	IC50 [2, 6] [nM]	Emax (HCT116 cells; [9]) [%]	IC50 (HRE–bla ME-180 cells) [nM]	Emax (ME-180 cells; ME-180, 72 h, Table S8, 3 days) [%]	IC50 (ME-180 cells; [10]) [nM]	IC50 (HCT116 cells; [11]) [nM]	Viability (Luc) confirmatory IC50 [3]	Emax (HIF-1α–NanoLuc; [14]) [%]	Emax (HIF-1α–NanoLuc; [16]) [%]	Emax (HRE–bla ME-180 cells) [%]	further results
17000 ± 3170	19000 ± 4340	CCN(CC)CCNC(=O)c1c(C)[nH]c(/C=C2\C(=O)Nc3ccc(F)cc32)c1C [Sunitinib]	81	81 ± 32			16000 ± 8130					80 ± 15	80 ± 15	60 ± 38	IC50 ([3]; Homo sapiens, HCT-116, Table S7, confirmatory screen, 1% O2, 18 h): 26400 ± 9410 nM; Emax ([3]; Homo sapiens, HCT-116, Table S7, confirmatory screen, read-out: Viability (Luc) confirmatory Efficacy): 26 ± 7%; IC50 (HCT116 cells; [18]): 37200 nM; HCT116 3-Day Viability IC50 (HCT116 cells; Table S8, 3 days): Inactive; IC50 (HIF-1α–NanoLuc; HCT-116, Table 1, HCT116 reporter cells, hypoxia 1% O2, 18 h, confirmatory, read-out: HIF-1α-NanoLuc IC50): 11300 ± 3710 nM; Emax (HIF-1α–NanoLuc; Table 1, percentage of inhibition compared to DMSO controls, read-out: HIF-1α-NanoLuc Efficacy (converted)): 80%; Emax (HIF-1α–NanoLuc; [12]): 60%; IC50 (HIF-1α–NanoLuc; [13]): 1680 nM; Emax (HIF-1α–NanoLuc; [17]): 60%
620 ± 380	100 ± 10	CC[C@@]1(O)C(=O)OCc2c1cc1n(c2=O)Cc2cc3c(CN(C)C)c(O)ccc3nc2-1 [Topotecan]	131	131 ± 9											IC50 [1]: 10 nM; Emax [1]: 80%; IC50 (HCT116 cells; [18]): 4300 ± 1200 nM; Viability (BLA) confirmatory IC50 (HRE–bla ME-180 cells; Table S7, 1% O2, 18 h): Inactive
